PubChem BioAssay (NCI)
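Tested at 5 concentrations; 48 h exposure; 96-well plates; endpoints linearly interpolated, else capped at highest concentration. The concentration for 50% growth inhibition is given as GI50. TGI denotes the concentration required for complete inhibition of growth.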

Columns and labels:
Experiment in all cases: DTP human tumour cell line panel, 48 h
[1] = test system: SNB-75 CNS
[2] = test system: SF-295 CNS
[3] = test system: T-47D breast
[4] = test system: COLO 205 colon
[5] = test system: A549 NSCLC
[6] = test system: HT29 colon
[7] = test system: MALME-3M melanoma
[8] = test system: HCT-116 colon
[9] = test system: TK-10 renal
[10] = test system: MOLT-4 leukemia

Structure (SMILES) | TGI [1] | TGI [2] | TGI [3] | TGI [4] | TGI [5] | TGI [6] | TGI [7] | TGI [8] | TGI [9] | TGI [10] | GI50 [1] | GI50 [2] | GI50 [3] | GI50 [4] | GI50 [10] | GI50 [5] | GI50 [6] | GI50 [7] | GI50 [8] | GI50 [9]
CN(C)C(=S)SCc1ccccc1 | 70.3 µM | > 100 µM | 60.6 µM | > 100 µM | > 100 µM | > 100 µM | > 100 µM | > 100 µM | > 100 µM | – | – | – | – | – | – | – | – | – | – | –
CCC(C)(C)c1ccc(Oc2cccc(C(=O)O)c2)cc1 | > 100 µM | > 100 µM | > 100 µM | > 100 µM | > 100 µM | > 100 µM | > 100 µM | > 100 µM | > 100 µM | 70.7 µM | – | – | – | – | – | – | – | – | – | –
C/C(=C\c1ccc2c(c1)OCO2)[N+](=O)[O-] | 88.2 µM | 6.27 µM | 5.14 µM | 4.2 µM | > 100 µM | 7.21 µM | 5.68 µM | > 100 µM | 8.63 µM | 1.13 µM | – | – | – | – | – | – | – | – | – | –
CCOC(=O)c1cc(Cl)ccc1OC(N)=O | > 100 µM | > 100 µM | – | > 100 µM | > 100 µM | > 100 µM | – | > 100 µM | – | > 100 µM | – | – | – | – | – | – | – | – | – | –
C(=N/Nc1ccccn1)/c1cccnc1 | > 100 µM | > 100 µM | > 100 µM | > 100 µM | > 100 µM | > 100 µM | > 100 µM | > 100 µM | > 100 µM | > 100 µM | – | – | – | – | – | – | – | – | – | –
Cc1cccc(C(O)c2ccccn2)c1O (stereo not given) | > 100 µM | > 100 µM | > 100 µM | > 100 µM | > 100 µM | > 100 µM | > 100 µM | > 100 µM | > 100 µM | > 100 µM | – | – | – | – | – | – | – | – | – | –
Nc1nc(Cl)nc2c1ncn2C1CCC(CO)O1 (stereo not given) | > 100 µM | > 100 µM | > 100 µM | > 100 µM | – | > 100 µM | > 100 µM | > 100 µM | > 100 µM | > 100 µM | – | – | – | – | – | – | – | – | – | –
Clc1ccc(CSCc2ccc(Cl)cc2Cl)c(Cl)c1 | 89 µM | > 100 µM | > 100 µM | > 100 µM | > 100 µM | > 100 µM | 72.5 µM | > 100 µM | > 100 µM | > 100 µM | – | – | – | – | – | – | – | – | – | –
N#CC(C#N)=Cc1ccc(-c2ccc(-c3nc4ccccc4s3)cc2)s1 | > 100 µM | 59.1 µM | 73.8 µM | > 100 µM | > 100 µM | > 100 µM | 54.5 µM | 31.1 µM | 47.4 µM | 68.5 µM | 37.5 µM | 22.6 µM | 18.2 µM | 23.7 µM | 22.8 µM | 13.8 µM | 29.7 µM | 16.6 µM | 12.3 µM | 22.7 µM
CC1=C/C(=C(/c2ccc(O)c(C)c2)c2ccccc2C(=O)O)C=CC1=O | 35.8 µM | 44.2 µM | 72.1 µM | 34.3 µM | 35.3 µM | 42.8 µM | 46.8 µM | 32.8 µM | 31.1 µM | 43.1 µM | – | – | – | – | – | – | – | – | – | –
